From patent US12091402B2 (Avilar Therapeutics, Inc., priority 2021, dated 2024)
Like-named read-outs stand apart in the source and are kept apart here.

Key:
HepG2 cells = experiment: Cellular uptake assay of AF488-labeled antibody (HepG2); format: cell-based; settings: HepG2 cells
In short: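 Ternary-complex uptake via ASGPR was imaged after fixation: the read-out is AF488-positive HepG2 cells divided by total DAPI nuclei. Degrader dilutions (IgG- or DNP-based, 0.1% DMSO final) were co-incubated 6 h at 37° C. with 100 nM of the corresponding fluorescent antibody.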

[1] = biological target: T1, ASGPR receptor on the cell surface (HepG2 cells) (Homo sapiens, UniProt P07306); experiment: Ternary complex formation assay (flow cytometry, HepG2); format: cell-based
T1 construct: host or cells: HepG2
T1 sequence (P07306 1-291): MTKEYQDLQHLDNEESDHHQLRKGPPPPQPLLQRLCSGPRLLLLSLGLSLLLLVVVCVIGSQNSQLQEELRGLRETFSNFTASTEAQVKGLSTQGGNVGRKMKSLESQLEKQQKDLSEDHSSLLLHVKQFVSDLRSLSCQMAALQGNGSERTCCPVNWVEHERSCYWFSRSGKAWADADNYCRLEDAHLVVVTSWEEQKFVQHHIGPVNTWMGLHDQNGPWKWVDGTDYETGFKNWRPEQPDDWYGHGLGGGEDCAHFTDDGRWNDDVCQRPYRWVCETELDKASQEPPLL
T1 sequence (P07307 1-311 partner): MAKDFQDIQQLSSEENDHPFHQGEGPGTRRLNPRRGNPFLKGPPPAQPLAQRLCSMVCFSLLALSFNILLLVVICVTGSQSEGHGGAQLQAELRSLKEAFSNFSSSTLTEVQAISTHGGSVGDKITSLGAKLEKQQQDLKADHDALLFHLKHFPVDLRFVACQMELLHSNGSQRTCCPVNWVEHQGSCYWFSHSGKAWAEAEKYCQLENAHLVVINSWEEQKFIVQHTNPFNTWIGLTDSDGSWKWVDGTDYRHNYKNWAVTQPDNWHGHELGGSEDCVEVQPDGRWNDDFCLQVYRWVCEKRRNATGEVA
In short: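 HepG2 cells (1×10^5/well) incubated 1 h at 4 °C with 100 nM AF488-labeled anti-human IgG plus serial IgG-based degrader, or 100 nM AF488 rabbit anti-DNP plus serial DNP-based degrader. After washing, cell-associated AF488 MFI read by flow cytometry; peak MFI marks optimal degrader concentration for ternary complex.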

IgG = experiment: Affinity to IgG by surface plasmon resonance (SPR); format: binding
Experimental: Immobilization levels ranging from 1000-1300 resonance units (RU) are obtained. The running buffer is 10 mM HEPES, pH 7.4, 400 mM NaCl, 0.005% P20, […].

ASGPR = biological target: T2, ASGPR (Homo sapiens, UniProt P07306); experiment: Affinity to ASGPR by surface plasmon resonance (SPR)
T2 sequence (P07306 1-291): T1 sequence (P07306 1-291)

[2] = 100 nM AF488-labeled antibody, 37° C. for 6 hours, class symbols, read-out: Uptake Assay EC50
[3] = Biacore 8K, 25° C., IgG on CM5 chip, read-out: IgG SPR Binding Kd

Row | Compound | EC50 (HepG2 cells; [2]) | EC50 (HepG2 cells; read-out: Uptake EC50) | EC50 [1] | EC50 ([1]; read-out: Ternary Complex EC50) | Kd (IgG; SPR, read-out: IgG KD) | Kd (ASGPR) | Kd (IgG; [3]) | EC50 ([1]; HepG2 cells, 100 nM AF488-labeled antibody, 1 hour at 4° C., class symbols, read-out: Ternary Complex EC50) | EC50 ([1]; HepG2 cells, ternary complex formation, read-out: TCF EC50)
1 | CC(C)C[C@@H]1NC(=O)[C@H](Cc2c[nH]cn2)NC(=O)[C@H](Cc2c[nH]c3ccccc23)NC(=O)[C@H](C)NC(=O)[C@@H]2CSSC[C@H](NC(=O)[C@H](Cc3c[nH]c4ccccc34)NC(=O)[C@H](C(C)C)NC(=O)[C@H](CC(C)C)NC(=O)[C@H](CCC(=O)O)NC(=O)CNC1=O)C(=O)N[C@@H]([C@@H](C)O)C(=O)N1CCC[C@@H]1C(=O)N1C[C@@H](NC(=O)CCOCCOCCOCCOCCNC(=O)CCCc3cn(CCCCCC(=O)NC(COCCC(=O)NCCOCCOCCOCCOC[C@H]4OC[C@H](Nc5cncc(C(F)(F)F)n5)[C@@H](O)[C@H]4O)COCCC(=O)NCCOCCOCCOCCOC[C@H]4OC[C@H](Nc5cncc(C(F)(F)F)n5)[C@@H](O)[C@H]4O)nn3)C[C@H]1C(=O)N[C@@H](CC(=O)O)C(=O)N2 [Compound 4] | < 100 nM | < 100 nM | < 100 nM | < 100 nM | < 100 nM | < 100 nM |  |  | 
2 | CC(C)C[C@@H]1NC(=O)[C@H](Cc2c[nH]cn2)NC(=O)[C@H](Cc2c[nH]c3ccccc23)NC(=O)[C@H](C)NC(=O)[C@@H]2CSSC[C@H](NC(=O)[C@H](Cc3c[nH]c4ccccc34)NC(=O)[C@H](C(C)C)NC(=O)[C@H](CC(C)C)NC(=O)[C@H](CCC(=O)O)NC(=O)CNC1=O)C(=O)N[C@@H]([C@@H](C)O)C(=O)N1CCC[C@@H]1C(=O)N1C[C@@H](NC(=O)CCOCCNC(=O)CCCc3cn(CCCCCC(=O)NC(COCCC(=O)NCCOCCOCCOCCOC[C@H]4OC[C@H](Nc5nccc(C(F)(F)F)n5)[C@@H](O)[C@H]4O)COCCC(=O)NCCOCCOCCOCCOC[C@H]4OC[C@H](Nc5nccc(C(F)(F)F)n5)[C@@H](O)[C@H]4O)nn3)C[C@H]1C(=O)N[C@@H](CC(=O)O)C(=O)N2 [Compound 6] | < 100 nM |  | < 100 nM |  |  | < 100 nM | < 100 nM |  | 
3 | CC(C)C[C@@H]1NC(=O)[C@H](Cc2cnc[nH]2)NC(=O)[C@H](Cc2c[nH]c3ccccc23)NC(=O)[C@H](C)NC(=O)[C@@H]2CSSC[C@H](NC(=O)[C@H](Cc3c[nH]c4ccccc34)NC(=O)[C@H](C(C)C)NC(=O)[C@H](CC(C)C)NC(=O)[C@H](CCC(=O)O)NC(=O)CNC1=O)C(=O)N[C@@H]([C@@H](C)O)C(=O)N1CCC[C@@H]1C(=O)N1C[C@@H](NC(=O)CCOCCNC(=O)CCCc3cn(C[C@@]45CO[C@@H](O4)[C@H](Nc4nc(Cl)ns4)[C@@H](O)[C@H]5O)nn3)C[C@H]1C(=O)N[C@@H](CC(=O)O)C(=O)N2 [Compound 7] | 100 to 500 nM |  | < 100 nM |  |  | < 100 nM | < 100 nM |  | 
4 | CC(C)C[C@@H]1NC(=O)[C@H](Cc2c[nH]cn2)NC(=O)[C@H](Cc2c[nH]c3ccccc23)NC(=O)[C@H](C)NC(=O)[C@@H]2CSSC[C@H](NC(=O)[C@H](Cc3c[nH]c4ccccc34)NC(=O)[C@H](C(C)C)NC(=O)[C@H](CC(C)C)NC(=O)[C@H](CCC(=O)O)NC(=O)CNC1=O)C(=O)N[C@@H]([C@@H](C)O)C(=O)N1CCC[C@@H]1C(=O)N1C[C@@H](NC(=O)CCOCCOCCOCCNC(=O)CCCc3cn(CCCCCC(=O)NC(COCCC(=O)NCCOCCOCCOCCOC[C@@]45CO[C@@H](O4)[C@H](Nc4nc(Cl)ns4)[C@@H](O)[C@H]5O)COCCC(=O)NCCOCCOCCOCCOC[C@@]45CO[C@@H](O4)[C@H](Nc4nc(Cl)ns4)[C@@H](O)[C@H]5O)nn3)C[C@H]1C(=O)N[C@@H](CC(=O)O)C(=O)N2 [Compound 8] | < 100 nM |  | < 100 nM |  |  | < 100 nM | < 100 nM |  | 
5 | CC(C)C[C@@H]1NC(=O)[C@H](Cc2c[nH]cn2)NC(=O)[C@H](Cc2c[nH]c3ccccc23)NC(=O)[C@H](C)NC(=O)[C@@H]2CSSC[C@H](NC(=O)[C@H](Cc3c[nH]c4ccccc34)NC(=O)[C@H](C(C)C)NC(=O)[C@H](CC(C)C)NC(=O)[C@H](CCC(=O)O)NC(=O)CNC1=O)C(=O)N[C@@H]([C@@H](C)O)C(=O)N1CCC[C@@H]1C(=O)N1C[C@@H](NC(=O)CCOCCNC(=O)CCCc3cn(CCCCCC(=O)NC(COCCC(=O)NCCOCCOCCOCCOC[C@@]45CO[C@@H](O4)[C@H](Nc4nc(Cl)ns4)[C@@H](O)[C@H]5O)COCCC(=O)NCCOCCOCCOCCOC[C@@]45CO[C@@H](O4)[C@H](Nc4nc(Cl)ns4)[C@@H](O)[C@H]5O)nn3)C[C@H]1C(=O)N[C@@H](CC(=O)O)C(=O)N2 [Compound 9] | < 100 nM |  | < 100 nM |  |  | < 100 nM | < 100 nM |  | 
6 | CC(C)C[C@@H]1NC(=O)[C@H](Cc2c[nH]cn2)NC(=O)[C@H](Cc2c[nH]c3ccccc23)NC(=O)[C@H](C)NC(=O)[C@@H]2CSSC[C@H](NC(=O)[C@H](Cc3c[nH]c4ccccc34)NC(=O)[C@H](C(C)C)NC(=O)[C@H](CC(C)C)NC(=O)[C@H](CCC(=O)O)NC(=O)CNC1=O)C(=O)N[C@@H]([C@@H](C)O)C(=O)N1CCC[C@@H]1C(=O)N1C[C@@H](NC(=O)COCCOCC(=O)NC(COCCC(=O)NCCOCCOCCOCCOC[C@H]3OC[C@H](Nc4cncc(C(F)(F)F)n4)[C@@H](O)[C@H]3O)COCCC(=O)NCCOCCOCCOCCOC[C@H]3OC[C@H](Nc4cncc(C(F)(F)F)n4)[C@@H](O)[C@H]3O)C[C@H]1C(=O)N[C@@H](CC(=O)O)C(=O)N2 [Compound 41] | < 100 nM |  | < 100 nM |  |  |  | < 100 nM |  | 
7 | CC(C)C[C@@H]1NC(=O)[C@H](Cc2cnc[nH]2)NC(=O)[C@H](Cc2c[nH]c3ccccc23)NC(=O)[C@H](C)NC(=O)[C@@H]2CSSC[C@H](NC(=O)[C@H](Cc3c[nH]c4ccccc34)NC(=O)[C@H](C(C)C)NC(=O)[C@H](CC(C)C)NC(=O)[C@H](CCC(=O)O)NC(=O)CNC1=O)C(=O)N[C@@H]([C@@H](C)O)C(=O)N1CCC[C@@H]1C(=O)N1C[C@@H](NC(=O)CCCc3cn(CCCCCC(=O)NC(COCCC(=O)NCCOCCOCCOCCOC[C@H]4OC[C@H](Nc5cncc(C(F)(F)F)n5)[C@@H](O)[C@H]4O)COCCC(=O)NCCOCCOCCOCCOC[C@H]4OC[C@H](Nc5cncc(C(F)(F)F)n5)[C@@H](O)[C@H]4O)nn3)C[C@H]1C(=O)N[C@@H](CC(=O)O)C(=O)N2 [Compound 52] | < 100 nM |  |  |  |  |  | < 100 nM | < 100 nM | 
8 | CC(C)C[C@@H]1NC(=O)[C@H](Cc2c[nH]cn2)NC(=O)[C@H](Cc2c[nH]c3ccccc23)NC(=O)[C@H](C)NC(=O)[C@@H](NC(=O)[C@H](CC(=O)O)NC(=O)CCOCCOCCOCCOCCNC(=O)CCCc2cn(CCCCCC(=O)NC(COCCC(=O)NCCOCCOCCOCCOC[C@H]3OC[C@H](Nc4nccc(C(F)(F)F)n4)C[C@H]3O)COCCC(=O)NCCOCCOCCOCCOC[C@H]3OC[C@H](Nc4nccc(C(F)(F)F)n4)C[C@H]3O)nn2)CSSC[C@@H](C(=O)N[C@H](C(N)=O)[C@@H](C)O)NC(=O)[C@H](Cc2c[nH]c3ccccc23)NC(=O)[C@H](C(C)C)NC(=O)[C@H](CC(C)C)NC(=O)[C@H](CCC(=O)O)NC(=O)CNC1=O [Compound 88] |  | > 1000 nM | > 1000 nM |  |  | > 1000 nM |  |  | 
9 | CC(C)C[C@@H]1NC(=O)[C@H](Cc2c[nH]cn2)NC(=O)[C@H](Cc2c[nH]c3ccccc23)NC(=O)[C@H](C)NC(=O)[C@@H](NC(=O)[C@H](CC(=O)O)NC(=O)CCOCCOCCOCCOCCNC(=O)CCCc2cn(CCCCCC(=O)NC(COCCC(=O)NCCOCCOCCOCCOC[C@H]3OC[C@H](Nc4nccc(C(F)(F)F)n4)[C@@H](O)[C@H]3O)(COCCC(=O)NCCOCCOCCOCCOC[C@H]3OC[C@H](Nc4nccc(C(F)(F)F)n4)[C@@H](O)[C@H]3O)COCCC(=O)NCCOCCOCCOCCOC[C@H]3OC[C@H](Nc4nccc(C(F)(F)F)n4)[C@@H](O)[C@H]3O)nn2)CSSC[C@@H](C(=O)N[C@H](C(N)=O)[C@@H](C)O)NC(=O)[C@H](Cc2c[nH]c3ccccc23)NC(=O)[C@H](C(C)C)NC(=O)[C@H](CC(C)C)NC(=O)[C@H](CCC(=O)O)NC(=O)CNC1=O [Compound 90] |  | < 100 nM | < 100 nM |  |  | < 100 nM |  |  | 
10 | CC(C)C[C@@H]1NC(=O)[C@H](Cc2cnc[nH]2)NC(=O)[C@H](Cc2c[nH]c3ccccc23)NC(=O)[C@H](C)NC(=O)[C@@H]2CSSC[C@H](NC(=O)[C@H](Cc3c[nH]c4ccccc34)NC(=O)[C@H](C(C)C)NC(=O)[C@H](CC(C)C)NC(=O)[C@H](CCC(=O)O)NC(=O)CNC1=O)C(=O)N[C@@H]([C@@H](C)O)C(=O)N1CCC[C@@H]1C(=O)N1C[C@H](NC(=O)COCCOCC(=O)NC[C@H]3OC[C@H](Nc4cncc(C(F)(F)F)n4)[C@@H](O)[C@H]3O)C[C@H]1C(=O)N[C@@H](CC(=O)O)C(=O)N2 [Compound 91] |  | < 100 nM |  |  | < 100 nM |  |  |  | < 100 nM
